pIC50: −log10 of the molar value.
Legend:
ovarian cancer A2780 = assay: Cell biological activity detection (CyQuant, 72 hours), A2780; format: cell-based, human; conditions: A2780 cells, incubation for 72 hours
Description: (§1) A2780 and HCC70 cells were subjected to trypsin digestion treatment, and cell suspensions were respectively transferred to 15 mL centrifuge tubes and centrifuged for 5 min at […]) rpm; supernatant was discarded, and resuspension was carried out in a fresh medium (RPMI 1640+10% FBS), after counting, cells were seeded into a 384-well plate at 2000/well (50 μL of 1640+10% FBS medium was added to the 2nd column and the 23rd column of the 384-well plate, and 50 μL of DPBS was added to the surrounding wells). Incubation was carried out overnight in an incubator (37° C., 5% CO2).
(§2) The compound was added to the well plates the next day. The compound had the highest concentration of 10 μM and was diluted at 1:4, and there were a total of 9 concentrations; and a positive compound Paclitaxel had the highest concentration of 1 μM and was diluted at 1:3, and there were a total of 9 concentrations. The DMSO content in each well was unified to 0.2%. The cell plates were centrifuged for 30 seconds at 800 rpm and placed in an incubator (37° C., 5% CO2) for incubation for 72 hours. On the fourth day, a Cyquant reagent (3×) was formulated according to kit instructions, and formulation was carried out for each 384-well plate according to the following proportions: DPBS 11.568 mL, CyQuant®? Direct nucleic acid stain 72 μL, and CyQuant® Direct background suppressor 360 μL. After uniform mixing, the reagent was placed at room temperature for further use. The cell plates were taken out and equilibrated for 30 min at room temperature, and 25 μL of the Cyquant reagent (3×) per well was dispensed into the cells of the 384-well plates by Multi-drop, and incubation was carried out for more than 60 minutes at 37° C. Acumen plate reading (Acumen setting: an excitation wavelength of 488 nm). IC50 results were analyzed by XLFIT5 from IDBS Company.

CDK2/cyclinE1 complex = CDK2/cyclinE1 complex (Homo sapiens, UniProt P24941); assay: In-vitro enzymatic inhibitory activity testing, CDK2 inhibition assay (Caliper EZ Reader II); format: biochemical; conditions: CDK2/cyclinE1 0.5 nM, 180 min at 27° C.
Description: CDK12/CyclinK was diluted in an assay buffer (80 mM MES PH 6.5, 0.01% Tween 20, 50 ug/mL BSA, 10 mM MgCl2) to afford a corresponding enzyme solution with the 2.4 concentration. […] A CDK9/cyclinT1 complex (8 nM) and a “5-FAM-CDK9tide” peptide substrate (2 IM, synthetic fluorophore-labeled peptide with the following sequence: 5-FAM-GSRTPMY-NH2, wherein 5-FAM was as defined above and NH2 represented C-terminal amide) were used for a CDK9 inhibition assay. […] A CDK2/cyclinE1 complex (0.5 nM) and “5-FAM-CDK7tide” (2 μM) as defined above were used for CDK2 inhibition assay.
(§3) A reaction mixture was analyzed on Caliper EZ Reader II by electrophoretic separation of a fluorogenic substrate and a phosphorylated product. Data were calculated by using GraphPad Prism version 6.0, and IC50 values were adjusted and obtained by using a nonlinear regression model of a dose response curve.

[1] = target: CDK7/cyclinH/MAT1 complex (Homo sapiens, UniProt P50613); assay: In-vitro enzymatic inhibitory activity testing, CDK7 inhibition assay (Caliper EZ Reader II); format: biochemical; conditions: CDK7/cyclinH/MAT1 6 nM, 180 min at 27° C.
Description: (§4) CDK12/CyclinK was diluted in an assay buffer (80 mM MES PH 6.5, 0.01% Tween 20, 50 ug/mL BSA, 10 mM MgCl2) to afford a corresponding enzyme solution with the 2.4 concentration. A compound was dissolved in dimethyl sulfoxide (DMSO) at a concentration of 10 mM. […] 2 ul of a test compound solution was mixed with 5 ul of the enzyme solution; after incubation for 10 min, 5 ul of the polypeptide substrate and ATP mixed solution was added; incubation was carried out for 180 min at 27° C.; and then, the reaction was terminated by adding 4 uL of EDTA with a concentration of 120 mM to each sample. […] A CDK9/cyclinT1 complex (8 nM) and a “5-FAM-CDK9tide” peptide substrate (2 IM, synthetic fluorophore-labeled peptide with the following sequence: 5-FAM-GSRTPMY-NH2, wherein 5-FAM was as defined above and NH2 represented C-terminal amide) were used for a CDK9 inhibition assay. […] A CDK2/cyclinE1 complex (0.5 nM) and “5-FAM-CDK7tide” (2 μM) as defined above were used for CDK2 inhibition assay.
as §3

[2] = tested on: human breast cancer cells HCC70; assay: Cell biological activity detection (CyQuant, 72 hours), HCC70; format: cell-based; conditions: Homo sapiens, HCC70, 72 h, incubation for 72 hours
Description: as §1, §2

[3] = target: T1, CDK12 (aa686-1082)/cyclinK complex (Homo sapiens, UniProt Q9NYV4); assay: In-vitro enzymatic inhibitory activity testing, CDK12 inhibition assay (Caliper EZ Reader II); format: biochemical; conditions: CDK12/cyclinK 50 nM, 180 min at 27° C.; read-out: CDK12 IC50
T1 construct: A CDK12 (aa686-1082)/cyclinK complex (50 nM)
Description: An assay was carried out in a U-bottom 384-well plate (coming, 4512#), and the reaction temperature was 27° C. CDK7/CyclinH was diluted in an assay buffer (20 mM MES PH 6.75, 0.01% Tween 20, 50 ug/mL BSA, 6 mM MgCl2) to afford a corresponding enzyme solution with the 2.4× concentration. CDK2/CyclinE1 was diluted in an assay buffer (20 mM MES PH 6.75, 0.01% Tween 20, 50 ug/mL BSA, 6 mM MgCl2) to afford a corresponding enzyme solution with the 2.4× concentration. CDK9/CyclinT1 was diluted in an assay buffer (20 mM MES PH 6.75, 0.01% Tween 20, 50 ug/mL BSA, 10 mM MgCl2) to afford a corresponding enzyme solution with the 2.4× concentration. CDK12/CyclinK was diluted in an assay buffer (80 mM MES PH 6.5, 0.01% Tween 20, 50 ug/mL BSA, 10 mM MgCl2) to afford a corresponding enzyme solution with the 2.4 concentration. A compound was dissolved in dimethyl sulfoxide (DMSO) at a concentration of 10 mM. During use, the compound was diluted with DMSO into 10 concentration gradients from 25 nM to 500 uM, and respectively diluted by 8.3 folds in the assay buffer to afford a compound solution with a 6× concentration. A polypeptide substrate and ATP were diluted in the assay buffer to afford a polypeptide substrate and ATP mixed solution with a 2.4× concentration. 2 ul of a test compound solution was mixed with 5 ul of the enzyme solution; after incubation for 10 min, 5 ul of the polypeptide substrate and ATP mixed solution was added; incubation was carried out for 180 min at 27° C.; and then, the reaction was terminated by adding 4 uL of EDTA with a concentration of 120 mM to each sample. […]. Specifically, a CDK7/cyclinH/MAT1 complex (6 nM) and a “5-FAMCD K 7 tide” peptide substrate (2 μM, synthetic fluorophore-labeled peptide with the following sequence: 5-FAM-[…], wherein “5-FAM” refers to 5-carboxyfluorescein) were used for a CDK7 inhibition assay. A CDK9/cyclinT1 complex (8 nM) and a “5-FAM-CDK9tide” peptide substrate (2 IM, synthetic fluorophore-labeled peptide with the following sequence: 5-FAM-GSRTPMY-NH2, wherein 5-FAM was as defined above and NH2 represented C-terminal amide) were used for a CDK9 inhibition assay. A CDK12 (aa686-1082)/cyclinK complex (50 nM) and “5-FAM-CDK9tide” (2 μM) as defined above were used for a CDK12 inhibition assay. A CDK2/cyclinE1 complex (0.5 nM) and “5-FAM-CDK7tide” (2 μM) as defined above were used for CDK2 inhibition assay.
as §3

CDK9/cyclinT1 complex = CDK9/cyclinT1 complex (Homo sapiens, UniProt P50750); assay: In-vitro enzymatic inhibitory activity testing, CDK9 inhibition assay (Caliper EZ Reader II); format: biochemical; conditions: CDK9/cyclinT1 8 nM, 180 min at 27° C.
Description: as §4, §3

T1 sequence (Q9NYV4 686-1082, species assumed): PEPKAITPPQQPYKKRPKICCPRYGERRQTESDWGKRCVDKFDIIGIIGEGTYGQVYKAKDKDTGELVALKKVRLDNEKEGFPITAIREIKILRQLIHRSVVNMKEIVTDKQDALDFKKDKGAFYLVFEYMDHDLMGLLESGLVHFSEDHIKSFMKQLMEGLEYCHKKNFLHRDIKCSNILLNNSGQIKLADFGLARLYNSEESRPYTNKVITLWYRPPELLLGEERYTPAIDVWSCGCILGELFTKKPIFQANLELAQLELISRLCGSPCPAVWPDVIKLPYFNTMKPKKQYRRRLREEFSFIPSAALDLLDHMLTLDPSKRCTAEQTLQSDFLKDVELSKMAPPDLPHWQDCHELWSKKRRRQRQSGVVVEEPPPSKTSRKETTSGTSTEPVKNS
T1 sequence (O75909 whole entry partner, species assumed, the tested form may be a part): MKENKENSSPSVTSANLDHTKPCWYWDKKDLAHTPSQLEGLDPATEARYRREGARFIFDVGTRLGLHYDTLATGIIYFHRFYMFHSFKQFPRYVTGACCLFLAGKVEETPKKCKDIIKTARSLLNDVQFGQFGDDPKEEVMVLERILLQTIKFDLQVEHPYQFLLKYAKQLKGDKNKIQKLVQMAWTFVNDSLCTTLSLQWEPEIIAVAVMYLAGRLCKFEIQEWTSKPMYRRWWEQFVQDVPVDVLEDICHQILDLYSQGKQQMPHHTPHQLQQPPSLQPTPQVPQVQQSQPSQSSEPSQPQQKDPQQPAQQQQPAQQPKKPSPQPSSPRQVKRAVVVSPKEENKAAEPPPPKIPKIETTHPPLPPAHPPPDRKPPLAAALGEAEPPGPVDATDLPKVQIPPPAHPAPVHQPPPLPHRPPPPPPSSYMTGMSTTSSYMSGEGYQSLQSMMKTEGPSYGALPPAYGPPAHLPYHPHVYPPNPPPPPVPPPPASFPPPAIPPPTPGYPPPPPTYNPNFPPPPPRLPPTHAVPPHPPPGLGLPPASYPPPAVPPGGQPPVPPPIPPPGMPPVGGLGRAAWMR
Chain of CDK9/cyclinT1 complex (P50750 whole entry, species assumed): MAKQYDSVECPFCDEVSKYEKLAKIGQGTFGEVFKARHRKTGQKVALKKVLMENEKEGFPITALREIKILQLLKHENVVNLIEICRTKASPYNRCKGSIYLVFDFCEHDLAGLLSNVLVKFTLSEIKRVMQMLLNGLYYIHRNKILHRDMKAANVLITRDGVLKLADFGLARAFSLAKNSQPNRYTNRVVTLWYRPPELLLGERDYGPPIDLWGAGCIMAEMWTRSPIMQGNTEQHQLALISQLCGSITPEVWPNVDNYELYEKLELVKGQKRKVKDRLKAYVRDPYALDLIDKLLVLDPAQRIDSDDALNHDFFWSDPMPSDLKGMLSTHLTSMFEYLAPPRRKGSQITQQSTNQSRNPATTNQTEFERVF
Chain of CDK9/cyclinT1 complex (O60563 whole entry partner, species assumed): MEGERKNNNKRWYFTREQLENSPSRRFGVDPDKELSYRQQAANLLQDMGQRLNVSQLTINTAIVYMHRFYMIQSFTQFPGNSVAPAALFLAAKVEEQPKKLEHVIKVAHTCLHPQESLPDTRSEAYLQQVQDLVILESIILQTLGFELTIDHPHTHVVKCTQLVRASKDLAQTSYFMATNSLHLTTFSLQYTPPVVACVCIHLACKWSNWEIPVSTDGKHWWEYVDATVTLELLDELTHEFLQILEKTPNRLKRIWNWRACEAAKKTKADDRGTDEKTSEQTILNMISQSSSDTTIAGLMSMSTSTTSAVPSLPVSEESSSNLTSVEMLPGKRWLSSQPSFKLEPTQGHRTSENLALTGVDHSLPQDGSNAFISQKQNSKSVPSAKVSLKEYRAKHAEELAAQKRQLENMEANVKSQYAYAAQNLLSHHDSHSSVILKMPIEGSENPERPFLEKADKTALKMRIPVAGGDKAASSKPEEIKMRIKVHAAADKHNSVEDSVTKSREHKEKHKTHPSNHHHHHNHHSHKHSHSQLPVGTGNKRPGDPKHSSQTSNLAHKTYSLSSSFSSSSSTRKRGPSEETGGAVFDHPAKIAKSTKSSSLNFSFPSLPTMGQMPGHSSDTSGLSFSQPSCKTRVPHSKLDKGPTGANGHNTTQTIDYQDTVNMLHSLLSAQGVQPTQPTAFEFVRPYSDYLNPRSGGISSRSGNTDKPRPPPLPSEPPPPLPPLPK
Chain of CDK7/cyclinH/MAT1 complex (P50613 whole entry, species assumed): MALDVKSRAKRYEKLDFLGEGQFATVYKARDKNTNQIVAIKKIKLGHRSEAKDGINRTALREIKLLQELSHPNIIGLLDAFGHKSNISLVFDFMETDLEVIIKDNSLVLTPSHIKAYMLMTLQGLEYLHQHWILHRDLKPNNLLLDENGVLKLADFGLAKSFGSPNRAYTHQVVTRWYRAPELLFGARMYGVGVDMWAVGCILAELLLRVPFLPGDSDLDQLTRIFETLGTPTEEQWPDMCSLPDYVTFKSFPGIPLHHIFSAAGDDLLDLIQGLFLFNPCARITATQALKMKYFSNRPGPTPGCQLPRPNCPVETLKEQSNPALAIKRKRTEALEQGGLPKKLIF
Chain of CDK7/cyclinH/MAT1 complex (P51946 whole entry partner, species assumed): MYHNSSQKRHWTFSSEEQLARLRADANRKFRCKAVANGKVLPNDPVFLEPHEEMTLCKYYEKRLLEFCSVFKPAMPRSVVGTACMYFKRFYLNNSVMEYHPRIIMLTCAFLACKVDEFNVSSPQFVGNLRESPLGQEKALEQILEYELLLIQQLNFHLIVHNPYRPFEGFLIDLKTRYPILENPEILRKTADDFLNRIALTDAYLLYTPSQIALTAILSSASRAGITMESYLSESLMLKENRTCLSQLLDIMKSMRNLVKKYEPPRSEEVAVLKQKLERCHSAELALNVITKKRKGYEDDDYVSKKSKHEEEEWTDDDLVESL
Chain of CDK7/cyclinH/MAT1 complex (P51948 whole entry partner, species assumed): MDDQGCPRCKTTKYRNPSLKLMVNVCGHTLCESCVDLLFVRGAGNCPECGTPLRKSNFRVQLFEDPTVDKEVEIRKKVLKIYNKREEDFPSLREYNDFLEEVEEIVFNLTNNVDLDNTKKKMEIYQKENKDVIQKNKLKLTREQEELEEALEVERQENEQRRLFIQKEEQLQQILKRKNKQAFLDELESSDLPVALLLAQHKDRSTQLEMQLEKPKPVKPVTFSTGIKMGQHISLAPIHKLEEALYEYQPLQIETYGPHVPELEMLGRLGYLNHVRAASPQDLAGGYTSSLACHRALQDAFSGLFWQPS

SMILES	pIC50 (ovarian cancer A2780; Homo sapiens, A2780, 72 h)	pIC50 (CDK2/cyclinE1 complex)	pIC50 [1]	pIC50 [3]	pIC50 (CDK9/cyclinT1 complex)	pIC50 (ovarian cancer A2780)	pIC50 [2]
FC(F)(F)c1cnc(NC2CCC3CNCC32)nc1-c1c[nH]c2nc(N3CCOCC3)ccc12 (single isomer, unassigned) [Compound 56]	–	< 4.30	5.30 to 6.70	< 4.30	< 4.30	4.30 to 5.30	–
Cc1noc(C)c1-c1ccc2c(-c3nc(N[C@@H]4CCC45CNC5)ncc3C(F)(F)F)c[nH]c2n1 [Compound 36, (R)—N-(4-(6-(3,5-dimethylisoxazol-4-yl)-1H-pyrrolo[2,3-b]pyridin-3-yl)-5-(trifluoromethyl)pyrimidin-2-yl)-2-azaspiro[3.3]heptan-5-amine]	> 7.70	4.30 to 5.30	> 7.70	5.30 to 6.70	4.30 to 5.30	–	–
C[C@H]1C[C@H](Nc2ncc(C(F)(F)F)c(-c3c[nH]c4nc(N5CCOCC5)ccc34)n2)CCN1 [Compound 53, N-((2S,4R)-2-methylpiperidin-4-yl)-4-(6-morpholinyl-1H-pyrrolo[2,3-b]pyridin-3-yl)-5-(trifluoromethyl)pyrimidin-2-amine]	5.30 to 6.70	–	–	–	–	–	5.30 to 6.70
N#Cc1ccc2c(-c3nc(N[C@@H]4CCC45CNC5)ncc3C(F)(F)F)c[nH]c2n1 [Compound 61, (R)-3-(2-((2-azaspiro[3.3]heptan-5-yl)amino)-5-(trifluoromethyl)pyrimidin-4-yl)-1H-pyrrolo[2,3-b]pyridine-6-carbonitrile]	5.30 to 6.70	4.30 to 5.30	> 7.70	4.30 to 5.30	4.30 to 5.30	–	–
COc1cc(P(C)(C)=O)c2[nH]cc(-c3nc(N[C@@H](C)CO)ncc3C(F)(F)F)c2c1 [Compound 104]	–	5.30 to 6.70	6.70 to 7.70	< 4.30	< 4.30	–	–
COc1ccc2c(-c3nc(N[C@@H](C)CO)ncc3C(F)(F)F)c[nH]c2c1P(C)(C)=O [Compound 106, (S)-(3-(2-((1-hydroxypropan-2-yl)amino)-5-(trifluoromethyl)pyrimidin-4-yl)-6-methoxy-1H-indole-7-yl)dimethylphosphine oxide]	–	5.30 to 6.70	6.70 to 7.70	4.30 to 5.30	4.30 to 5.30	–	–
CC(C)(C)[C@H](CO)Nc1ncc(C(F)(F)F)c(-c2c[nH]c3c(P(C)(C)=O)cccc23)n1 [Compound 176]	–	–	–	–	–	–	> 7.70
C[C@@H](CO)Nc1ncc(C(N)=O)c(-c2c[nH]c3c(P(C)(C)=O)cccc23)n1 [Compound 180, (S)-4-(7-(dimethylphosphoryl)-1H-indole-3-yl)-2-((1-hydroxypropan-2-yl)amino)pyrimidine-5-carboxamide]	–	< 4.30	4.30 to 5.30	< 4.30	< 4.30	–	–
C[C@@H](CO)Nc1nccc(-c2c[nH]c3c(P(C)(C)=O)cccc23)n1 [Compound 186]	–	< 4.30	4.30 to 5.30	< 4.30	< 4.30	–	–

Now from value to compound, other results behind:

pIC50 (ovarian cancer A2780; Homo sapiens, A2780, 72 h)	pIC50 (CDK2/cyclinE1 complex)	pIC50 [1]	pIC50 [3]	pIC50 (CDK9/cyclinT1 complex)	pIC50 (ovarian cancer A2780)	SMILES	pIC50 [2]
> 7.70	4.30 to 5.30	> 7.70	< 4.30	< 4.30	–	CC(O)[C@H](C)Nc1ncc(C(F)(F)F)c(-c2c[nH]c3c(P(C)(C)=O)cccc23)n1 (mixture of isomers) [Compound 128, (3-(2-(((2S)-3-hydroxybutan-2-yl)amino)-5-(trifluoromethyl)pyrimidin-4-yl)-1H-indole-7-yl)dimethylphosphine oxide]	6.70 to 7.70
5.30 to 6.70	5.30 to 6.70	6.70 to 7.70	5.30 to 6.70	4.30 to 5.30	–	FC(F)(F)c1cnc(NC2CCCNCC2)nc1-c1c[nH]c2nc(N3CCOCC3)ccc12 (single isomer, unassigned) [Compound 48]	5.30 to 6.70
> 7.70	5.30 to 6.70	> 7.70	–	–	–	CP(C)(=O)c1cccc2c(-c3nc(NC4CC(F)(F)CC4O)ncc3C(F)(F)F)c[nH]c12 (single isomer, unassigned) [Compound 191]	6.70 to 7.70
–	4.30 to 5.30	6.70 to 7.70	< 4.30	< 4.30	–	CC1([C@@H](CO)Nc2ncc(C(F)(F)F)c(-c3c[nH]c4c(P(C)(C)=O)cccc34)n2)CC1 [Compound 112, (S)-(3-(2-((2-hydroxy-1-(1-methylcyclopropyl)ethyl)amino)-5-(trifluoromethyl)pyrimidin-4-yl)-1H-indole-7-yl)dimethylphosphine oxide]	–
–	4.30 to 5.30	6.70 to 7.70	< 4.30	< 4.30	–	CP(C)(=O)c1cccc2c(-c3nc(N[C@@H](CO)C4CCC4)ncc3C(F)(F)F)c[nH]c12 [Compound 113, (R)-(3-(2-((1-cyclobutyl-2-hydroxyethyl)amino)-5-(trifluoromethyl)pyrimidin-4-yl)-1H-indole-7-yl)dimethylphosphine oxide]	–
–	5.30 to 6.70	5.30 to 6.70	< 4.30	< 4.30	–	C[C@@H](CO)Nc1ncc(F)c(-c2c[nH]c3c(P(C)(C)=O)cccc23)n1 [Compound 157, (S)-(3-(5-fluoro-2-((1-hydroxypropan-2-yl)amino)pyrimidin-4-yl)-1H-indole-7-yl)dimethylphosphine oxide]	–
